Columns and labels:
Cytotoxicity, MTT method = format: cell-based; details: mouse, L929 cells, 0–100 μM, read-out: cell viability (MTT)
Protocol: L929 (Shanghai Cell Bank, Chinese Academy of Sciences) cells were cultured in 10% fetal bovine serum: penicillin–streptomycin solution: MEM mixed medium with serum–free medium (10:1:90), and subcultured in a 5% carbon dioxide cell incubator at 37 °C, and the medium changed every other day.
In this experiment, L929 cells in the logarithmic growth phase were selected, and the cell density was adjusted to 2 × 10^4 cells per well. The cells were seeded in 96–well plates, and the 96–well plates seeded with cells were cultured in a 37 °C 5% carbon dioxide cell incubator. After 24 h, different concentrations of the test compound medium (6.5, 12.5, 25, 50, 100 μM) were added, and the blank group was added with drug–free medium, shaken gently, and placed at 37 °C 5%. The cells were cultured in a carbon dioxide cell incubator for 24 h, and each concentration was replicated 6 times. After 24 h, 20 μL of […] MTT solution (prepared in PBS with pH = 7.6) was added in the dark, and cultured in the cell incubator for another 4 h. After 4 h, the 96–well plate was taken out and the original medium was discarded. Added 160 μL DMSO, put it on a shaker and mixed well for about 10 min, used a microplate reader to measure its absorbance at 490 nm, recorded the results and analyzed.

MAO–A = target: T1, MAO–A (Rattus norvegicus, UniProt P21396); experiment: MAO–A inhibitory activity (enzyme pre-incubated with pargyline); format: biochemical
T1 construct: the obtained SD rat liver mitochondrial concentrate was the experimental monoamine oxidase stock solution; from tissue; host or cells: male SD rat liver mitochondria
T1 sequence (P21396 1-526): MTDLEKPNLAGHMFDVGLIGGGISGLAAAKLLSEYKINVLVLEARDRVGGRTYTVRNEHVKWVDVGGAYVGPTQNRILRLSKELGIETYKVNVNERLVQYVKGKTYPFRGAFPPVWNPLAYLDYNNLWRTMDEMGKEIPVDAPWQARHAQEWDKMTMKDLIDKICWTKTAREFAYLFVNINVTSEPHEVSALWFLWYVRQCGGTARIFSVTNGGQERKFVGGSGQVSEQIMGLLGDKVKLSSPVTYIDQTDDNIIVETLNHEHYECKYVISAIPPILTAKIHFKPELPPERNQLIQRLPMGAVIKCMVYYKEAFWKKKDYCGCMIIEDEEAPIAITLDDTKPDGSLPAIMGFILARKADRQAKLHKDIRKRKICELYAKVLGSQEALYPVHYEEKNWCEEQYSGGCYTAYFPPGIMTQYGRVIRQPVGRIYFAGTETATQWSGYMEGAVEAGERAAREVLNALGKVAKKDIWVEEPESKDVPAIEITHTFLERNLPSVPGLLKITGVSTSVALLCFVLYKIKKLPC
Protocol: (§1) Male SD rats were sacrificed by decapitation, operated on ice, their livers were removed, and the liver surface was washed with precooled phosphate buffer. The liver was cut into pieces, and after washing (using PBS), 20 mL of 0.3 M sucrose buffer was added for homogenization. After fully homogenized, it was balanced by a tray balance. Low–temperature differential centrifugation was performed, and the obtained SD rat liver mitochondrial concentrate was the experimental monoamine oxidase stock solution, and was stored in a −80 °C refrigerator.
(§2) Added 25 µL of enzyme dilution solution and 25 µL of test derivatives (control group plus rasagiline, blank group plus 10% DMSO) to 96–well plate, incubated at 37 °C for 1 h, then 120 µL of substrate was added, 80 µL of chromogenic solution was added, incubated at 37 °C for 30 min, and its absorbance measured at 490 nm. In addition, in order to exclude the influence of protein, a protein control group was established, only the enzyme dilution was added, and the rest were replaced with PBS, and the absorbance value was detected at a wavelength of 490 nm. The inhibition rate of each concentration was substituted into the calculation software GraphPad Prism 8 to calculate the IC50 value.
(§3) The inhibition rate of each concentration was substituted into the calculation software GraphPad Prism 8 to calculate the IC50 value.

BuChE = BuChE (Homo sapiens, UniProt P06276); experiment: biochemical; format: biochemical
Protocol: (§4) Each concentration was tested three times in parallel, and 96 empty plates were taken, and 20 µL of the test sample or positive drug (10% DMSO was added to the blank control), 40 µL of AChE or BuChE (0.2 U/mL) and 100 µL of DTNB (0.001 mol/L) were added in turn, mixed well and incubated in a constant temperature water bath at 37 °C for 15 min.

AChE = AChE (Homo sapiens, UniProt P22303); experiment: biochemical; format: biochemical
Protocol: as §4

MAO = MAO inhibitory activity (Holts method, rat liver mitochondrial enzyme); format: biochemical
Protocol: as §1, §2

MAO–B = target: T2, MAO–B (Rattus norvegicus, UniProt P19643); experiment: MAO–B inhibitory activity (enzyme pre-incubated with chlorgiline); format: biochemical
T2 construct: the obtained SD rat liver mitochondrial concentrate was the experimental monoamine oxidase stock solution; from tissue; host or cells: male SD rat liver mitochondria
T2 sequence (P19643 1-520): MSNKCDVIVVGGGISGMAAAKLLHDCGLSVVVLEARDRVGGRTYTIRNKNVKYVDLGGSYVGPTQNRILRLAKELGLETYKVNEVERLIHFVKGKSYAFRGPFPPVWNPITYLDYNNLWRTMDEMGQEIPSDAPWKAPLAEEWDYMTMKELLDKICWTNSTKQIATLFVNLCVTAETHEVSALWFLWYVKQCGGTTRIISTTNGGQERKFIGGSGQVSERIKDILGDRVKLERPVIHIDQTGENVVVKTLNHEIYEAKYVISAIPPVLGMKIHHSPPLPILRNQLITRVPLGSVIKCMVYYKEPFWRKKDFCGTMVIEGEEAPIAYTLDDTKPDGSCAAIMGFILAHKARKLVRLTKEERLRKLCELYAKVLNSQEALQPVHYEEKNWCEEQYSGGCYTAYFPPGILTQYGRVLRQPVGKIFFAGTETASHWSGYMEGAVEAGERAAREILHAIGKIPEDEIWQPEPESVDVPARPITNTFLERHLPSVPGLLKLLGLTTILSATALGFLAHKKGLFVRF
Protocol: as §1, §2, §3

ICR male mice = experiment: Forced swimming test (FST); format: in vivo; details: i.p., 30 mg/kg; for Duration of Immobility: 30 min after administration, mean ± SEM (n = 8); for DID (%) percentage decrease in immobility duration: vs control
Protocol: Pharmacological experiments of antidepressant activity used FST in mice, fluoxetine hydrochloride was used as a positive control, and the vehicle solvent PFG–400 was used as a blank control. The experiment used ICR male mice (20 ± 2 g). Six benzothiazole–quinoline derivatives were dissolved in polyethylene glycol–400, and 30 min after administration (i.p., 30 mg/kg), the mice were each placed in a glass cylinder, recording the time of immobility. Duration of immobility outcomes is expressed as mean ± SEM. The t-test was used to make comparisons between groups.

BuChE, sequence (P06276 29-602): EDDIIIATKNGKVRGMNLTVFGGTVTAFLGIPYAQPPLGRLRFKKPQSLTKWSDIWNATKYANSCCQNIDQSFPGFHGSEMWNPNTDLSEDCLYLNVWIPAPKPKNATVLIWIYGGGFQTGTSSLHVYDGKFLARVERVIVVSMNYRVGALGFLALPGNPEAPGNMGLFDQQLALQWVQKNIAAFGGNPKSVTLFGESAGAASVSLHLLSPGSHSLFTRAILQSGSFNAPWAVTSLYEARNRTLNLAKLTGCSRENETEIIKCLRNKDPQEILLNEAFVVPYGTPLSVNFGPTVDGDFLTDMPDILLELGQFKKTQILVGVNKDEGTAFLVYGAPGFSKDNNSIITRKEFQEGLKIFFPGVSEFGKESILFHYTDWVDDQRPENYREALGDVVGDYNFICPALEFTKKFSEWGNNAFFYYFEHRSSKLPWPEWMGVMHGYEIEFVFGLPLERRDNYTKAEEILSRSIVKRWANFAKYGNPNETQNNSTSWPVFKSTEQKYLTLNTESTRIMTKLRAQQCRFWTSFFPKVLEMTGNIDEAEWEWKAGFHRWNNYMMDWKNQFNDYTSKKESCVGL
AChE, sequence (P22303 32-614): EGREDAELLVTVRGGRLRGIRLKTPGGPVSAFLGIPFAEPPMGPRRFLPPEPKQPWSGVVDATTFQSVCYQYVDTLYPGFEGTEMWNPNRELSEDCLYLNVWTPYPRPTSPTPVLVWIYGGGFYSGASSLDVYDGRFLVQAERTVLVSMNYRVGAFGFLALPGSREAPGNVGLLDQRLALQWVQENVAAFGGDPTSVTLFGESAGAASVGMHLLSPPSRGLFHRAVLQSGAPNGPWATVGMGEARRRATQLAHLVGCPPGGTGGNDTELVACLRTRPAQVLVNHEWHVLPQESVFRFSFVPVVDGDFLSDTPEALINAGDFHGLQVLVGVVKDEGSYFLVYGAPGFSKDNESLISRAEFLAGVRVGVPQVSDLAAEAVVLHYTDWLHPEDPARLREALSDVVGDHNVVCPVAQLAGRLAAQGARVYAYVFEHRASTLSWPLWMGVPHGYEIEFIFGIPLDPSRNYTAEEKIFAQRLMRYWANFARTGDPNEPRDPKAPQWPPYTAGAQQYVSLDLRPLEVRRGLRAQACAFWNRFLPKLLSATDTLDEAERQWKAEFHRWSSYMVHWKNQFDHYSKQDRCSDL

Compound	viability at 24 h (Cytotoxicity, MTT method) [%]	Inhibition Rate (%) MAO–A (MAO–A) [%]	IC50 (BuChE) [µM]	Inhibition Rate (%) BuChE (BuChE) [%]	IC50 (AChE) [µM]	Inhibition Rate (%) AChE (AChE) [%]	IC50 (MAO) [µM]	Inhibition Rate of MAO (%) (MAO)	IC50 (MAO–B) [µM]	Inhibition Rate (%) MAO–B (MAO–B) [%]	Duration of Immobility (ICR male mice) [s]	DID (%) percentage decrease in immobility duration (ICR male mice) [%]
Cc1cccc2sc(NC(=O)CN3CCc4ccccc4[C@H]3c3ccccc3)nc12 [Compound 4g, (R)–N–(4–methylbenzo[d]thiazol–2–yl)–2–(1–phenyl–3,4–dihydroisoquinolin–2(1H)–yl)acetamide]	> 90	9.03	30.3 ± 4.59	72.64	> 150	1.10	14.8 ± 5.45	57.11	12.1 ± 3.47	51.39	69.0 ± 15.7	61.32
O=C(CN1CCc2ccccc2[C@H]1c1ccccc1)Nc1nc2ccc(Cl)cc2s1 [Compound 4c, (R)–N–(6–chlorobenzo[d]thiazol–2–yl)–2–(1–phenyl–3,4–dihydroisoquinolin–2(1H)–yl)acetamide]	> 90	12.03	> 150	68.80	> 150	1.10	45.9 ± 2.66	21.59	9.13 ± 4.17	48.45	77.0 ± 18.3	56.84
O=C(CN1CCc2ccccc2[C@H]1c1ccccc1)Nc1nc2cc(Cl)ccc2s1 [Compound 4b, (R)–N–(5–chlorobenzo[d]thiazol–2–yl)–2–(1–phenyl–3,4–dihydroisoquinolin–2(1H)–yl)acetamide]	> 90	3.01	17.6 ± 1.78	69.44	> 150	4.42	38.8 ± 3.76	39.27	40.8 ± 2.67	39.15	85.7 ± 8.1	51.98
O=C(CN1CCc2ccccc2[C@H]1c1ccccc1)Nc1nc2c(Br)cccc2s1 [Compound 4d, (R)–N–(4–bromobenzo[d]thiazol–2–yl)–2–(1–phenyl–3,4–dihydroisoquinolin–2(1H)–yl)acetamide]	> 90	18.05	14.6 ± 5.81	77.76	> 150	0.55	64.8 ± 4.2	43.37	3.26 ± 2.78	46.00	62.3 ± 14.0	65.06
O=C(CN1CCc2ccccc2[C@H]1c1ccccc1)Nc1nc2ccc(Br)cc2s1 [Compound 4f, (R)–N–(6–bromobenzo[d]thiazol–2–yl)–2–(1–phenyl–3,4–dihydroisoquinolin–2(1H)–yl)acetamide]	> 90	15.04	> 150	32.32	> 150	1.10	41.8 ± 2.94	24.15	47.6 ± 1.82	46.49	71.7 ± 4.9	59.83
Cc1ccc2nc(NC(=O)CN3CCc4ccccc4[C@H]3c3ccccc3)sc2c1 [Compound 4i, (R)–N–(6–methylbenzo[d]thiazol–2–yl)–2–(1–phenyl–3,4–dihydroisoquinolin–2(1H)–yl)acetamide]	> 90	2.51	19.2 ± 2.72	47.68	> 150	2.21	18.5 ± 1.69	26.46	16.5 ± 3.59	61.17	83.8 ± 13.6	53.05
